pIC50: −log10 of the molar value.
Assays:
[1] = system: MCF7; assay: Antiproliferative activity against human MCF7 cells after 72 hrs by MTT assay
[2] = target: T1, Estrogen receptor (Homo sapiens, UniProt P03372)
T1 sequence (P03372 whole entry): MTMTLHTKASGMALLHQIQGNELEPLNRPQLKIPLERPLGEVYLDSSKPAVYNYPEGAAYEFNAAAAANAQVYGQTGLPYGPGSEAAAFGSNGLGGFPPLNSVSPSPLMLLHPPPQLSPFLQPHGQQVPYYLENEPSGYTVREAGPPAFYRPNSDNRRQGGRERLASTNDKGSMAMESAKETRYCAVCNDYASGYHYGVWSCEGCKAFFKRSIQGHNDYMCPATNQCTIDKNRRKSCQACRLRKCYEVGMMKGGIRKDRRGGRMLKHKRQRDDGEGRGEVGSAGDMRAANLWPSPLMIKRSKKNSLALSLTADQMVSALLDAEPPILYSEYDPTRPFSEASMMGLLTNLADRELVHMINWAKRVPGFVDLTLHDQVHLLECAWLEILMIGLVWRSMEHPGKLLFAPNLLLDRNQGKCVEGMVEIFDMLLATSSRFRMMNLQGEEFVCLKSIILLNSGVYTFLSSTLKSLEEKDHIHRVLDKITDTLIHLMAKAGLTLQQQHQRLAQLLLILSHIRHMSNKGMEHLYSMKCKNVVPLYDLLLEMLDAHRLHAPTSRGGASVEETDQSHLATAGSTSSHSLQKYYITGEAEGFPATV
Description: Displacement of [3H]-E2 from human ER-alpha incubated for 16 to 20 hrs by liquid scintillation counting analysis

[3] = target: Estrogen receptor beta (Homo sapiens, UniProt Q92731)
Description: Displacement of [3H]-E2 from human ER-beta incubated for 16 to 20 hrs by liquid scintillation counting analysis

[4] = Cytotoxicity against human MOLT4 cells assessed as growth inhibition after 48 hrs by SRB assay; assay type: functional; settings: MOLT-4, 48 h
[5] = system: EKVX; assay: Cytotoxicity against human EKVX cells assessed as growth inhibition after 48 hrs by SRB assay; assay type: functional
[6] = Cytotoxicity against human HCT15 cells assessed as growth inhibition after 48 hrs by SRB assay; assay type: functional; settings: HCT-15, 48 h
[7] = Cytotoxicity against human SNB75 cells assessed as growth inhibition after 48 hrs by SRB assay; assay type: functional; settings: SNB-75, 48 h
[8] = system: MDA-MB-435; assay: Cytotoxicity against human MDA-MB-435 cells assessed as growth inhibition after 48 hrs by SRB assay; assay type: functional; settings: MDA-MB-435, 48 h
[9] = Cytotoxicity against human SKOV3 cells assessed as growth inhibition after 48 hrs by SRB assay; assay type: functional; settings: SK-OV-3, 48 h
[10] = Cytotoxicity against human UO31 cells assessed as growth inhibition after 48 hrs by SRB assay; assay type: functional; settings: UO-31, 48 h
[11] = system: MCF7; assay: Cytotoxicity against human MCF7 cells assessed as growth inhibition after 48 hrs by SRB assay; assay type: functional; settings: MCF7, 48 h
[12] = system: MDA-MB-468; assay: Cytotoxicity against human MDA-MB-468 cells assessed as growth inhibition after 48 hrs by SRB assay; assay type: functional; settings: MDA-MB-468, 48 h

Estrogen receptor beta, sequence (Q92731 whole entry): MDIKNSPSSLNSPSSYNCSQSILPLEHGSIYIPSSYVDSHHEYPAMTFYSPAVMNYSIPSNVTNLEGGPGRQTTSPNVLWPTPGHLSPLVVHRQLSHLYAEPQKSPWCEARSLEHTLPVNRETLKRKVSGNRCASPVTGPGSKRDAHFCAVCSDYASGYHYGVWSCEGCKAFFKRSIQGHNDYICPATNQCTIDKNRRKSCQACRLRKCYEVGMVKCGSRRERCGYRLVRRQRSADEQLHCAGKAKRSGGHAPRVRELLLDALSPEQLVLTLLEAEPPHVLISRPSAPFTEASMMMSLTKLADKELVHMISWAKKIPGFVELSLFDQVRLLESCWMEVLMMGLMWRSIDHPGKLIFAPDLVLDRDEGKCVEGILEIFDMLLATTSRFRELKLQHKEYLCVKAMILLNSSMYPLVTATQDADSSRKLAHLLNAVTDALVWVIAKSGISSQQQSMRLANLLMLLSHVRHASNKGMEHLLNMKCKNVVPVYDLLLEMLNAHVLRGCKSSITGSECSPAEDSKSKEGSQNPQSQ

Structure (SMILES)	pIC50 ([1]; mcf7)	pIC50 [2]	further results
CCC(=C(c1ccc(O)cc1)c1ccc(OCCN(C)C)cc1)c1ccccc1	–	–	pIC50 ([1]; Homo sapiens, MCF7, 72 h): 5.55
CCCCCCCCCC(=O)Oc1ccc(/C(=C(/C)c2ccccc2)c2ccc(OCCN3CCCCC3)cc2)cc1	5.82	7.09	–
C/C(=C(/c1ccc(O)cc1)c1ccc(OCCN2CCCCC2)cc1)c1ccccc1	5.91	9.40	–
C/C(=C(/c1ccc(O)cc1)c1ccc(OCCN(C)C)cc1)c1ccccc1	5.83	8.89	–
CCCC(=O)Oc1ccc(/C(=C(/C)c2ccccc2)c2ccc(OCCN(C)C)cc2)cc1	5.50	7.46	–
CC(=O)Oc1ccc(/C(=C(\C)c2ccccc2)c2ccc(OCCN(C)C)cc2)cc1	5.56	7.66	–
CCCC(=O)Oc1ccc(/C(=C(/C)c2ccccc2)c2ccc(OCCN3CCCC3)cc2)cc1	5.92	7.57	–
CC(=O)Oc1ccc(/C(=C(/C)c2ccccc2)c2ccc(OCCN3CCCCC3)cc2)cc1	5.61	7.91	–
CCCC(=O)Oc1ccc(/C(=C(/C)c2ccccc2)c2ccc(OCCN3CCCCC3)cc2)cc1	5.62	7.48	–
CCCCCCCCCC(=O)Oc1ccc(/C(=C(/C)c2ccccc2)c2ccc(OCCN(C)C)cc2)cc1	5.95	7.50	–
CC(=O)Oc1ccc(/C(=C(/C)c2ccccc2)c2ccc(OCCN3CCCC3)cc2)cc1	5.59	8.11	pIC50 [3]: 6.59
CC/C(=C(\c1ccccc1)c1ccc(OCCN(C)C)cc1)c1ccccc1 [TAMOXIFEN]	–	–	GI50 [4]: 2500 nM; GI50 [5]: 6.3 µM; GI50 [6]: 3.16 µM; pIC50 ([1]; Homo sapiens, MCF7, 72 h): 5.36; GI50 [7]: 5.01 µM; GI50 [8]: 3.16 µM; GI50 [9]: 10 µM; GI50 [10]: 6.3 µM; GI50 [11]: 1580 nM; GI50 [12]: 2500 nM
